# Laboratory results from publication PMC7616682 (Journal of biological inorganic chemistry : JBIC : a …, 2024).
# Where two headings read alike, the source gives them in different places.
# Tests used:
# [1] = system: Psuedomonas aeruginosa ATCC BAA-47; assay: Rapid screen broth microdilution assay; type: cell-based, Pseudomonas aeruginosa; details: rapid screen without replicates, 24 h, read-out: MIC P. aeruginosa (Gram negative)
# Protocol: (§1) Antibacterial activity assay
# (§2) Rapid screen broth microdilution assay
# (§3) 5 × 125 mL Erlenmeyer flasks, each filled with 12.5 mL Mueller Hinton broth II (MHBII), were inoculated with Klebsiella pneumoniae ATCC 13883, Acinetobacter baumanii ATCC 17978, Psuedomonas aeruginosa ATCC BAA-47, Staphylococcus aureus […]
# (§4) with 12.5 mL BHI broth was inoculated with Enterococcus faecium ATCC 19434. The cultures were incubated at 37 °C with shaking at 180 rpm for 16 h. The suspensions were diluted 100-fold with the requisite broth (E. faecium: 4-fold) and the resultant suspensions incubated for a further 3 h at 37 °C with shaking. […]
# (§5) of 0.8–1.2 after 3 h. Stock solutions of the title compounds were prepared in the requisite broth from 100 mM stocks in DMSO with the exceptions of carbenicillin, which was from a 100 mM stock in water and ciprofloxacin from a 10 mM stock in DMSO.
# (§6) 6 × 96 well plates were primed with a concentration gradient of the analytes from 200 to 3.13 µM, carbenicillin from 200 to 3.13 µM and ciprofloxacin from 10 to 0.16 µM. The cells were diluted 100-fold to an OD600 of 0.01. All plates were then inoculated with 50 μL per well bacterial culture in the requisite broth to 100 μL per well. Plates were then incubated at 37 °C for 24 h before reading OD600 on a BMG Clariostar platereader. […]
# S. aureus NTCC 12973 = assay: MIC broth microdilution assay; type: cell-based, Staphylococcus aureus; details: 24 h, read-out: MIC S. aureus (Gram positive)
# Protocol: (§7) Antibacterial activity assay […]
# (§8) MIC broth microdilution assay
# (§9) 3 × 125 mL Erlenmeyer flasks, each filled with 12.5 mL MHBII, were inoculated with three different colonies of S. aureus NTCC 12973. 3 × 125 mL Erlenmeyer flasks, each filled with 12.5 mL BHI broth, were inoculated with three different colonies of E. faecium ATCC 19434. The cultures were incubated at 37 °C with shaking at 180 rpm for 16 h.
# (§10) OD600 of ~2.5. The suspensions of S. aureus cultures were diluted 100-fold with MHBII while the E. faecium cultures were diluted 4-fold. The resultant suspensions were incubated for a further 3 h at 37 °C with shaking. […]
# (§11) after 3 h. Stock solutions of the title compounds were prepared in the requisite broth from 100 mM stocks in DMSO with the exception of carbenicillin, which was from a 100 mM stock in water and vancomycin from a 10 mM stock in DMSO. 15 × 96 well plates were primed with concentration gradients of the analytes and carbenicillin as shown in Figure S60 for S. aureus. 15 × 96 well plates were primed with the concentration […]
# (§12) μL per well of the relevant bacterial culture in the requisite broth to 100 μL per well.
# Plates were then incubated at 37 °C for 24 h before reading OD600 on a BMG Clariostar […]
# Figure S50: Dose response profiles of the title compounds against S. aureus.
# (§13) (1 picture or pasted object on this page, not shown here)
# [2] = LogP by shake-flask method (n-octanol/phosphate buffer)
# Protocol: using the "shake-flask" method.[6],[7] In short, phosphate buffer (50 mM, pH 7.4) was saturated with n-octanol by shaking a 1:1 mixture of both solution on a laboratory shaker for 72 h, after which the phases were separated. Stock solutions of each complex were then prepared in dimethylsulfoxide at a concentration of 10 mM. […]
# (§14) solution with a concentration of 100 µM. From this solution, 1000 µL were transferred into an Eppendorf tube and mixed with 1000 µL of n-octanol. After shaking for 15 min and centrifugation (5 min, 6000 rpm), the two phases were carefully separated, and the contact layer discarded. Then, the absorbance of each phase was recorded with an Agilent 8453 UV/Vis spectrometer.
# as §14, with “2 mL solution with” for “solution with”, “1000 µL phosphate buffer. After shaking” for “1000 µL of n-octanol. After shaking”, “rpm), the phases were” for “rpm), the two phases were”
# [3] = system: Escherichia coli K12 ATCC 10798; assay: Rapid screen broth microdilution assay; type: cell-based; details: rapid screen without replicates, 24 h, read-out: MIC E. coli (Gram negative)
# Protocol: as §1, §2, §3, §4, §5, §6
# [4] = system: Klebsiella pneumoniae ATCC 13883; assay: Rapid screen broth microdilution assay; type: cell-based; details: rapid screen without replicates, 24 h, read-out: MIC K. pnuemoniae (Gram negative)
# Protocol: as §1, §2, §3, §4, §5, §6
# [5] = system: Acinetobacter baumanii ATCC 17978; assay: Rapid screen broth microdilution assay; type: cell-based, Acinetobacter baumannii; details: rapid screen without replicates, 24 h, read-out: MIC A. baumannii (Gram negative)
# Protocol: as §1, §2, §3, §4, §5, §6
# [6] = system: BEASB2, HaCat, RPE1, HCT116 and HeLa cell lines; assay: Cell viability, summary over all cell lines studied; type: cell-based, human; details: Homo sapiens; summary of Table 3, 48 h; read-out: IC50 values, range over all cell lines studied
# Protocol: (§15) To determine the relative viability, after incubation cells were fixed and stained with DAPI and the number of nuclei per well determined using a CeligoTM Image Cytometer (Figure S52 to S60). […] page 43: Cell viability studies Compound cytotoxicity was tested simultaneously on five representative cell lines […] All cells were cultured in DMEM Glutamax without pyruvate with 10% fetal bovine serum and 1% penicillin/streptomycin (Gibco). Cells were incubated with the compound for 24 or 48 h […] The tested concentration range for each compound was […] The required […] Greiner CELLSTAR® microplates) using the Echo 550 Acoustic Liquid Handler and wells were back-filled with DMSO when required to keep a final DMSO concentration […] Next, 50 μL of cell solution was added to the compound-containing wells using the Integra® […] Bulk dispenser. Cell solutions were prepared to get 5000 […] cells per well for hTERT RPE-1, and 5000 (24 h)/2500 (48 h) cells per well for BEAS- […] After incubation, cells were fixed with 4% PFA (Merck, […]), permeabilized with […] DAPI (Merck, 10236276001). Viable cells were counted using 377 nm excitation and 447 nm emission filters on the CeligoTM Image Cytometer. The number of nuclei per well was determined using the Direct Cell Count analysis from the CeligoPro Sofware […] All conditions were performed in triplicate. Staurosporine (Cambridge Bioscience, s7600) was used as a positive control and DMSO only as a negative control. The percentage of cell viability was normalized to the DMSO-only control and […] logistic curve with the scipy.optimize.curve_fit function. S43
# [7] = system: RPE1 (retinal pigment epithelial cells); assay: Cell viability (DAPI nuclei count); type: cell-based, human
# Protocol: as §15
# [8] = system: HaCat (non-cancer skin) cells; assay: Cell viability (DAPI nuclei count); type: cell-based, human; details: 48 h
# Protocol: as §15
# [9] = system: HeLa (cervical cancer) cells; assay: Cell viability (DAPI nuclei count); type: cell-based, human; details: 48 h
# Protocol: as §15
# [10] = system: HCT116 (colorectal cancer) cells; assay: Cell viability (DAPI nuclei count); type: cell-based, human
# Protocol: as §15
# [11] = system: BEAS2B (non-cancer lung) cells; assay: Cell viability (DAPI nuclei count); type: cell-based, human; details: 48 h
# Protocol: as §15
# E. faecium ATCC 19434 = assay: MIC broth microdilution assay; type: cell-based, Enterococcus faecium; details: 24 h, read-out: MIC E. faecium (Gram positive)
# Protocol: as §7, §8, §9, §10, §11, §12
# streptavidin = streptavidin (Streptomyces avidinii, UniProt P22629); assay: Isothermal titration calorimetry (ITC) with streptavidin; type: binding; details: 25 °C, 10 mM HEPES + 2% DMSO; for Kd: read-out: dissociation constant (Kd) to streptavidin
# Chain of streptavidin (P22629 25-183, species assumed): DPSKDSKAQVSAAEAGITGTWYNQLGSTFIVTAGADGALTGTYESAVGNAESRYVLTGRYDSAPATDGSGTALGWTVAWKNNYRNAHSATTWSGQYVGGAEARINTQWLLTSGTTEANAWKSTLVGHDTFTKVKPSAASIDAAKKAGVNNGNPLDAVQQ
# Protocol: Isothermal titration calorimetry
# Streptavidin (20 µM in 10 mM HEPES plus 2% DMSO) was titrated stepwise with 2 uL injections of the compound (200 µM in 10 mM HEPES + 2% DMSO) at 25 °C, using a Malvern MicroCal PEAQ-ITC. Raw thermograms (top panels) and the binding isotherm from the integrated thermogram (bottom panels) were fit using the One Set of Sites model in the MicroCal PEAQ-ITC analysis software. Circles indicate the integrated heat, and the curve represents the best fit.
# Figure S46: Isothermal titration calorimetry measurements of 5.
# as §13
# avidin [12] = target: T1, avidin (Gallus gallus, UniProt P02701); assay: HABA/avidin assay; type: binding; details: titration of HABA/avidin mixture, absorbance at 500 nm
# T1 construct: purchased SIGMA-ALDRICH A9275
# T1 sequence (P02701 25-152): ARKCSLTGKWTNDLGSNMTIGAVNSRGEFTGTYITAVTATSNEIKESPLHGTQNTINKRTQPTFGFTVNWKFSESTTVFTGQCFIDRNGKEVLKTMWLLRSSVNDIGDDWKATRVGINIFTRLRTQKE
# Protocol: properties towards avidin using the HABA assay.[8] A mixture of avidin (6.8 μM, SIGMA-ALDRICH: A9275) and 4'-hydroxyazobenzene-2-carboxylic acid (HABA, 0.3 mM, SIGMA-ALDRICH: H5126) was dissolved in 50 mM sodium phosphate buffer (20 mL, pH 7.4) and allowed to equilibrate for 24 h at 4 °C. Stock solutions of each compound were prepared in dimethyl sulfoxide at a concentration of 1.1 mM. The […]
# to the prepared avidin/HABA mixture (1 mL) at room temperature at 5–10 min intervals […]
# absorbance then recorded with an Agilent 8453 UV/Vis spectrometer. The formation of the adduct was indicated by a decrease in the absorbance at 500 nm due to the displacement of HABA from the avidin. By plotting -ΔA500 nm vs. the molar concentration ratio c(compound):c(avidin), the binding stoichiometry of the compound to avidin was determined.
# avidin [13] = target: T1, avidin; details: cited from earlier work
# [14] = shake-flask method, n-octanol/phosphate buffer 50 mM pH 7.4
SMILES,"LogP [2, 14]",Kd (streptavidin) [µM],MIC [1] [µM],MIC (S. aureus NTCC 12973; three colonies) [µM],MIC [3] [µM],MIC [4] [µM],MIC [5] [µM],IC50 ([7]; 48 h) [µM],IC50 [8] [µM],IC50 [9] [µM],IC50 ([10]; 48 h) [µM],MIC (E. faecium ATCC 19434; three colonies) [µM],further results
"O=C(C#Cc1ccccc1)CCCC[C@@H]1SC[C@@H]2NC(=O)N[C@@H]21 (stereo in doubt) [Compound 5, 7-[(3aS,4S,6aR)-2-oxohexahydro-1H-thieno-[3,4-d]imidazol-4-yl]-1-phenyl-1-heptyn-3-one]",highly lipophilic^a,< 0.001,–,–,–,–,–,–,–,–,–,–,"MIC ([1]; Pseudomonas aeruginosa, ATCCBAA47): > 200 µM; MIC (S. aureus NTCC 12973; Staphylococcus aureus, NTCC12973, three colonies): > 200 µM; MIC ([3]; Escherichia coli, ATCC10798): > 200 µM; MIC ([4]; Klebsiella pneumoniae, ATCC13883): > 200 µM; MIC ([5]; Acinetobacter baumannii, ATCC17978): > 200 µM; IC50 [6]: 2 to 4 µM; IC50 ([7]; Homo sapiens, RPE-1, 48 h): 2.4 µM; IC50 ([8]; Homo sapiens, HaCaT): 3.3 µM; IC50 ([9]; Homo sapiens, HeLa): 3.3 µM; IC50 ([10]; Homo sapiens, HCT-116, 48 h): 4 µM; IC50 ([11]; Homo sapiens, BEAS-2B): 3.6 µM; MIC (E. faecium ATCC 19434; Enterococcus faecium, ATCC19434, three colonies): 200 µM"
COC(=O)c1n[n]([Pt+])nc1C(=O)OC.F[P-](F)(F)(F)(F)F.c1ccc(-c2cccc(-c3ccccn3)n2)nc1 [Compound 15],–,–,>200,>200,>200,>200,>200,4.9,15.4,15.9,6,>200,LogP ([2]; pH 7.4): -1.80; avidin binding in HABA assay (result in words) (avidin [12]): non-specific protein binding; dissociation constant (Kd) to streptavidin (streptavidin): did not bind to streptavidin
"F[P-](F)(F)(F)(F)F.O=C1N[C@H]2[C@H](CS[C@H]2CCCCC(=O)c2n[n]([Pt+][c]3cccc(-c4cccc(-c5ccccn5)n4)n3)nc2-c2ccccc2)N1 [Compound 16, [Pt(triazolatoC6H5,biotin)(terpy)]PF6]",-0.78,0.13,>200,>200,>200,>200,>200,5.2,14.1,13.3,6.8,>200,IC50 [11]: 8.3 µM
"O=C(O)c1ccccc1N=Nc1ccc(O)cc1 [HABA, 4'-hydroxyazobenzene-2-carboxylic acid]",–,–,–,–,–,–,–,–,–,–,–,–,Kd (avidin [13]): 6 µM
